The text below walks through data of PMC3783901, “A spectrophotometric coupled enzyme assay to measure the activity of succinate dehydrogenase^” (Analytical Biochemistry, 2013).

Data set [1] deals with T1, complex II (succinate:ubiquinone oxidoreductase, succinate dehydrogenase) in bovine heart submitochondrial particles (Bos taurus, UniProt P31039+P35720+Q3T189+Q95123).
T1 construct: gene SDHA; native four-subunit complex in submitochondrial particles from bovine heart mitochondria, not isolated; dicarboxylate site in SDHA, ubiquinone site at SDHB/SDHC/SDHD
Kind of data set: coupled FumC-MaeB assay of succinate oxidation in SMPs, NADPH absorbance. Type of data set: biochemical. The following applies: pH 7.4, 32 °C, 2 mM NADP+, 2 mM MgSO4, endogenous ubiquinone-10, turnover to O2, kcat uses a published complex II content.

Data set [2] concerns the target FumC (fumarate hydratase) (Escherichia coli, UniProt P05042). As to conditions: pH 7.4, 32 °C, 10 mM Tris-SO4, 2 mM MgSO4, 1 mM K2SO4, 2 mM NADP+, 300 μg/ml MaeB; kcat apparently per tetramer.
Data set [3] has as its target T1, complex II (succinate:ubiquinone oxidoreductase, succinate dehydrogenase) in bovine heart submitochondrial particles. Kind of data set: coupled FumC-MaeB assay of succinate oxidation in SMPs, NADPH absorbance. Type of data set: biochemical. As to conditions: 5 mM succinate, pH 7.4, 32 °C, 2 mM NADP+, 2 mM MgSO4. The text has this: coupled FumC-MaeB assay of succinate oxidation in SMPs, NADPH absorbance on complex II (succinate:ubiquinone oxidoreductase, succinate dehydrogenase) in bovine heart submitochondrial particles | atpenin A5, an inhibitor that binds in the complex II ubiquinone-binding site, has an IC50 | malonate, an inhibitor that binds in the complex II flavin site, has an IC50

Substrate in data set [4]: O=C(O)C[C@H](O)C(=O)O
Kind of data set: purified protein. As to conditions: 4 mM NADP+, pH 7.4, 32 °C, 10 mM Tris-SO4, 2 mM MgSO4, 1 mM K2SO4, kcat apparently per octamer, malate stereo not given.

Substrate in data set [5]: NC(=O)c1ccc[n+]([C@@H]2O[C@H](COP(=O)(O)OP(=O)(O)OC[C@H]3O[C@@H](n4cnc5c(N)ncnc54)[C@H](OP(=O)(O)O)[C@@H]3O)[C@@H](O)[C@H]2O)c1
In words: purified protein. The following applies: 40 mM malate, pH 7.4, 32 °C, 10 mM Tris-SO4, 2 mM MgSO4, 1 mM K2SO4.

Where two headings read alike, the source gives them in different places.

T1 sequence (P31039 44-665): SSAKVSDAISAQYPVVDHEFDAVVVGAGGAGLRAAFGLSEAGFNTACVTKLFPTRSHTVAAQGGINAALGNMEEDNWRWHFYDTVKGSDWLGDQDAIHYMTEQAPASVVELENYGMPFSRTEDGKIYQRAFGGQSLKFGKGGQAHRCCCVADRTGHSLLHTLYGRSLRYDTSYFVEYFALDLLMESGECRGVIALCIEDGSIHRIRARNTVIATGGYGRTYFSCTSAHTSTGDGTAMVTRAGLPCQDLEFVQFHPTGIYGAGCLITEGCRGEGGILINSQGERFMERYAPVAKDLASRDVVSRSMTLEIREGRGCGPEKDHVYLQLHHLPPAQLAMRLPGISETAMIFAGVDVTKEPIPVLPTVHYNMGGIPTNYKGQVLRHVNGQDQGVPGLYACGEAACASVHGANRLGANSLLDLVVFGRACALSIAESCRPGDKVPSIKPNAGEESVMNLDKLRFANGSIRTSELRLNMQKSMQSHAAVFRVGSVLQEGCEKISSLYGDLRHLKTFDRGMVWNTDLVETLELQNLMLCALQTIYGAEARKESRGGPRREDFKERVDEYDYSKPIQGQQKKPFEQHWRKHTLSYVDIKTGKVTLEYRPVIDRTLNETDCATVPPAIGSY
T1 sequence (Q3T189 29-280): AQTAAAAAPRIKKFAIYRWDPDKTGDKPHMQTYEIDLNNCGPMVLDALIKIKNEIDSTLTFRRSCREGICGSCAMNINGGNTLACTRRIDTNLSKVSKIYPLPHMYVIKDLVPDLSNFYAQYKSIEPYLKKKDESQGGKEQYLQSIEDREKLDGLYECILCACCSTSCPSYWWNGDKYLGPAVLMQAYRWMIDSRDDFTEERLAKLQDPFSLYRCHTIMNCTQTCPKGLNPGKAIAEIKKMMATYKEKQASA
T1 sequence (P35720 30-169): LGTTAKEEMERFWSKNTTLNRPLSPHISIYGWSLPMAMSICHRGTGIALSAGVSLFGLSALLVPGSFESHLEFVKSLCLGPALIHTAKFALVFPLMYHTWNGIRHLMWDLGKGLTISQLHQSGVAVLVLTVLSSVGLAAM
T1 sequence (Q95123 56-158): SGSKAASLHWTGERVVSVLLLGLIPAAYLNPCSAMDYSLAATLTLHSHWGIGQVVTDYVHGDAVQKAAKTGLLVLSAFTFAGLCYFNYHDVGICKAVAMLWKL
FumC (fumarate hydratase), sequence (P05042 whole entry): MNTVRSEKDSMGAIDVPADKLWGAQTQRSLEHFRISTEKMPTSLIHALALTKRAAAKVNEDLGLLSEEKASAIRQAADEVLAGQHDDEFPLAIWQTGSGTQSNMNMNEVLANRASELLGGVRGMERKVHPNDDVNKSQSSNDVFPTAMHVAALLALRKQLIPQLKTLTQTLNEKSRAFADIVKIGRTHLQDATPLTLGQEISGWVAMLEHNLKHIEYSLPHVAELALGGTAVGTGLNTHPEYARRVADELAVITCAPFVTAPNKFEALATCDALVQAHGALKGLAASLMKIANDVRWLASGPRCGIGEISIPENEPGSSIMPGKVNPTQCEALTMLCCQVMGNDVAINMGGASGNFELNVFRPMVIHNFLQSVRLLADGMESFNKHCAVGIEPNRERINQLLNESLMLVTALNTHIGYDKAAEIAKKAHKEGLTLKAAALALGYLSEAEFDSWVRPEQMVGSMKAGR

The term Km denotes the substrate concentration at which the rate is half of its maximum. For the molecule `O=C(O)CCC(=O)O` [succinate], the Km in data set [1] was determined as 410 ± 55 µM.
`O=C(O)/C=C/C(=O)O` [fumarate]: the Km in data set [2] was found to be 64 ± 7.8 µM.
In general, IC50 refers to the concentration at which inhibition is half-maximal. Turning to `O=C(O)CC(=O)O` [malonate], the IC50 in data set [3] (flavin (succinate) site, read-out: IC50) is 96 ± 1.3 µM.
In data set [3] (ubiquinone-binding site, full respiratory chain turnover to O2), `COc1[nH]c(=O)c(C(=O)[C@@H](C)C[C@H](C)[C@@H](Cl)CCl)c(O)c1OC` [atpenin A5] yielded an IC50 of 0.0024 ± 0.0012 µM.

B1: MaeB (oxaloacetate decarboxylating malic dehydrogenase) (Escherichia coli K-12) (protein)
chain: MDDQLKQSALDFHEFPVPGKIQVSPTKPLATQRDLALAYSPGVAAPCLEIEKDPLKAYKYTARGNLVAVISNGTAVLGLGNIGALAGKPVMEGKGVLFKKFAGIDVFDIEVDELDPDKFIEVVAALEPTFGGINLEDIKAPECFYIEQKLRERMNIPVFHDDQHGTAIISTAAILNGLRVVEKNISDVRMVVSGAGAAAIACMNLLVALGLQKHNIVVCDSKGVIYQGREPNMAETKAAYAVVDDGKRTLDDVIEGADIFLGCSGPKVLTQEMVKKMARAPMILALANPEPEILPPLAKEVRPDAIICTGRSDYPNQVNNVLCFPFIFRGALDVGATAINEEMKLAAVRAIAELAHAEQSEVVASAYGDQDLSFGPEYIIPKPFDPRLIVKIAPAVAKAAMESGVATRPIADFDVYIDKLTEFVYKTNLFMKPIFSQARKAPKRVVLPEGEEARVLHATQELVTLGLAKPILIGRPNVIEMRIQKLGLQIKAGVDFEIVNNESDPRFKEYWTEYFQIMKRRGVTQEQAQRALISNPTVIGAIMVQRGEADAMICGTVGDYHEHFSVVKNVFGYRDGVHTAGAMNALLLPSGNTFIADTYVNDEPDAEELAEITLMAAETVRRFGIEPRVALLSHSNFGSSDCPSSSKMRQALELVRERAPELMIDGEMHGDAALVEAIRNDRMPDSSLKGSANILVMPNMEAARISYNLLRVSSSEGVTVGPVLMGVAKPVHVLTPIASVRRIVNMVALAVVEAQTQPL
As usually defined, the kcat is the number of substrate molecules converted per active site and unit of time at saturation. In the case of B1, in “purified protein [4]”, the Km was determined as 7300 ± 900 µM and the kcat was determined as 92 ± 0.93 s⁻¹. Further, in the data set “purified protein [5]”, the Km was determined as 52 ± 2.6 µM.
